Entries after “also recorded” stand apart in the source; their conditions may differ.
Assays:
human plasma proteins = settings: cited from earlier work
[1] = FLACC total pain scores, open label single dose clinical study of diamorphine hydrochloride nasal spray in children; assay type: in vivo; settings: 0.1 mg/kg body weight intranasally; children aged 1-<16 years
Source text: An open label, single dose, sparse sampling pharmacokinetic dentate study in children aged from 1-<16 years attending hospital clinics for minor day surgery or laser treatment and requiring intravenous cannulation and opiate analgesia for their routine clinical management. The cannulation site on the child's arm was numbed with local anaesthetic cream, and a cannula was inserted. The child was then anaesthetized and a baseline blood sample taken. The child received 1-3 sprays of intranasal diamorphine, depending on their weight, and another blood sample was taken as soon as possible (from 0-10 minutes) post dose. […] Plasma acetylmorphine, morphine, morphine-3-glucuronide, and morphine-6-glucuronide concentrations were determined. The data from all children taking part in the trial was pooled and analysed together to avoid excessive blood sampling. […] Adverse events, vital signs, nasal tolerance and pain scores were also monitored. […]
For assessing the effectiveness of the Diamorphine Hydrochloride Nasal Spray pain scores were measured. The investigators or nurses measured the FLACC scores. The total score was based on 5 categories: (F) Face; (L) Legs; (A) Activity; (C) Cry; (C) Consolability; are scored between […]. […]

[2] = 0.1 mg/kg of body weight, intravenous injection; cited from earlier work
[3] = Adverse events, open label single dose clinical study of diamorphine hydrochloride nasal spray in children; assay type: in vivo; settings: single intranasal dose
Source text: (§1) An open label, single dose, sparse sampling pharmacokinetic dentate study in children aged from 1-<16 years attending hospital clinics for minor day surgery or laser treatment and requiring intravenous cannulation and opiate analgesia for their routine clinical management. The cannulation site on the child's arm was numbed with local anaesthetic cream, and a cannula was inserted. The child was then anaesthetized and a baseline blood sample taken. The child received 1-3 sprays of intranasal diamorphine, depending on their weight, and another blood sample was taken as soon as possible (from 0-10 minutes) post dose. Up to four further pharmacokinetic blood samples were taken from the cannula for the purposes of the study spaced out over the following time windows: 10-20 minutes, 20-30 minutes, 30-45 minutes, 45-60 minutes, 60-120 minutes and between 120 minutes post dose and removal of the cannula. Plasma acetylmorphine, morphine, morphine-3-glucuronide, and morphine-6-glucuronide concentrations were determined. The data from all children taking part in the trial was pooled and analysed together to avoid excessive blood sampling. Population pharmacokinetic parameters were estimated by using a non-linear mixed effects dentate approach. Adverse events, vital signs, nasal tolerance and pain scores were also monitored. […]

[4] = in presence of water degrades; cited from earlier work
[5] = cited from earlier work
[6] = Respiratory depression (clinically notable changes in vital signs) in the clinical study; assay type: in vivo, children; settings: single intranasal dose, 0.1 mg/kg body weight
Source text: as §1

CC(=O)Oc1ccc2c3c1OC1[C@@H](OC(C)=O)C=C[C@H]4[C@@H](C2)N(C)CC[C@]314 (some centres unmarked) [diamorphine, 3,6-diacetyl ester of morphine]
Protein binding (in words) (human plasma proteins): does not bind to protein | Analgesic effectiveness (in words) [1]: effective alone in producing the analgesic effects | Respiratory depressant effect (in words) [2]: respiratory depressant effect is reported | Incidence of adverse events (in words) [3]: very low | Stability in liquid dosage form (in words) [4]: highly unstable in liquid dosage form | half-life ([5]; in man): two to three | Duration of analgesic effect ([5]; in vivo): three to four | Respiratory depression (clinically notable changes in vital signs) [6]: free from the major side effects such as respiratory depression; also recorded: No respiratory depressant effect was observed
